“And” between values parts separate entries of the source, which are not always exact repeats. Identical values can stand only once. Marks after values point to notes of the source that are not given here.
What was measured:
[1] = test system: Ascaris suum; parameters: method as in PMID 26420588; settings: pigs; cited from earlier work
[2] = test system: Syphacia muris; parameters: method as in doi:10.2478/acve-2018-0036; settings: rats infected with Syphacia muris; cited from earlier work
[3] = rats; cited from earlier work
[4] = test system: P-glycoprotein; assay: Ex vivo intestinal transport of rhodamine 123 across sheep ileum (diffusion chamber model); settings: 4 h; for Peff M–S of Rho123 in the presence of the modulator: 0.5 µM Rho123, 5 µM DRM, 1.5 mM CNM–PGF or 50 µM LPM
Protocol: (§6) A series of ex vivo experiments were performed to evaluate the interaction of DRM, CNM–PGF, or LPM with ABC transporters. […] For this assay, sheep ileum samples were obtained from a local slaughterhouse (Ayacucho, Argentina). […] The incubation process was started immediately after obtaining the tissue. During the preparation and assembly process, intestinal tissue was always maintained between 0–4 °C. The tissue was then mounted vertically in a diffusion chamber with an internal surface area of 0.8 cm^2. […] Both the mucosal (M) and serosal (S) sides were filled with 7 and 5 mL of prewarmed and oxygenated Krebs buffer, respectively. […] During preparation, chambers were preincubated to slough off any dead cells, and during this period, the tissue were exposed in the donor side to the presence or absence of 5 µM of DRM; 1.5 mM of CNM–PGF; or 50 µM of LPM, a well-established P-gp modulator, which was used as a positive control [25, 26]. After a 20 min equilibration period, Krebs buffer was completely replaced with fresh medium fortified with 0.5 µM of Rho123 as a substrate to the M or S side of the chambers for measuring the absorption and secretion processes, respectively. Thus, Rho123 was incubated alone (control assays) or in the presence of DRM, CNM–PGF, or LPM. Tissues were incubated for 4 h, and each hour, aliquots of 1 mL were collected from the receptor side and replaced with fresh Krebs buffer.
(§7) Samples from the receptor side (1 mL) were mixed with 2 mL of distillated water to reach a final volume of 3 mL.
(§8) Values of unidirectional transepithelial effective permeability (Peff) (cm.s^−1) were calculated for each chamber according to the following equation: Peff=dC/dT1/A.C0
(§9) The appearance rate on the receiving compartment is dC/dT, calculated from the slope of the concentration versus time curve over a time period of 4 h (Rho123); A is the exposed area (cm^2) of the tissue in the Ussing chamber (0.8 cm^2), and C0 is the initial drug concentration (ng/mL) in the donor compartment. The efflux ratio (ER) was calculated as follows: ER=mean Peff S−M/mean Peff M−S
(§10) The intestinal absorption is represented by permeability in the M–S direction. The S–M side can also be used to measure permeability, in this case characterizes intestinal secretion. A higher Peff S–M compared to the Peff M–S is indicative of carrier-mediated transport.

[5] = test system: resistant gastrointestinal nematodes; assay: Fecal egg count reduction test (FECRT), trial 1: DRM, CNM–PGF and their combination as oral emulsions; type: in vivo, lambs
Protocol: The coadministration of DRM and CNM–PGF, both by an oral emulsion, was evaluated in lambs. The trial involved 35 Corriedale and Texel crossbred lambs (mean body weight, 26 kg) naturally infected with resistant gastrointestinal nematodes and was conducted in a sheep experimental unit (Estación Experimental INTA, Balcarce, Argentina). […] Animals were kept in a paddock and fed hay ad libitum, together with commercial concentrate feed. All animals had free access to water. Lambs were assigned to four experimental groups sorted by EPG count. Group A received an emulsion containing DRM (single dose of 0.2 mg/kg) (n = 9). Group B received CNM–PGF orally as an emulsion (two doses of 100 mg/kg every 24 h) (n = 9). Lambs of Group C were treated with an emulsion containing both DRM and CNM–PGF on the first day, and the second day, they received an emulsion of CNM–PGF only (n = 9). Group D included untreated lambs (n = 8). […] CNM–PGF was formulated as an emulsion composed of Tween-80/sesame oil (3:1) 20% at a final concentration of 15% CNM and 15% PGF. Briefly, the CNM–PGF emulsion was prepared using the high-energy ultrasonic method. CNM and PGF were mixed with sesame oil to form the oil phase. The oil phase was added dropwise to the aqueous phase containing Tween-80 and distillated water while stirring, and the emulsion formed was then subjected to ultrasonic emulsification for 15 min. The same steps were performed for the DRM + CNM–PGF emulsion, the synthetic compound was added to the oil phase, and their final concentration was 0.03%. […] To evaluate the effect of the treatment, individual fecal samples from all the lambs were collected on days −1, 7, and 14 of treatment, and the fecal egg count reduction (FECR) was calculated. The coprocultures were prepared with 10 g of feces from a pool of each experimental group obtained on days −1 and 14. The nematode genera and species were identified through the third-stage larvae recovered from the coprocultures.
(§1) Data are expressed as mean ± standard deviation (SD). Rho123 transport across the ileum is presented as ng of Rho123 in the receptor side of the chamber. The plasma concentration versus time curves obtained after treatment of each animal were fitted with the PK Solutions 2.0 software (summit Research Services, Ashland, OH, USA) software. Pharmacokinetic parameters were determined using a noncompartmental model method. The evaluation of the FECR was calculated according to the following formula [33], with modifications: FECR %=100 × (1−T2/T1) where T1 and T2 are the arithmetic mean EPG counts in the treated group on days 0 and 14, respectively. The 90% confidence intervals were calculated following the method of reference.
The statistical analysis was performed using Prism 8.0 (GraphPad Software, San Diego, CA, USA). ANOVA or Kruskal–Wallis tests were used for the statistical comparison. Tukey or Dunn tests were used for post hoc multiple comparisons. The egg counts obtained for each treatment on Day 14 were compared with the corresponding baseline counts on Day 0 using the Wilcoxon matched-pairs signed rank test. Differences were considered statistically significant at p < 0.05.

[6] = test system: resistant gastrointestinal nematodes; assay: Fecal egg count reduction test (FECRT), trial 2: DRM alone or with CNM–PGF or LPM; type: in vivo, lambs
Protocol: (§2) An in vivo assay was performed to evaluate the pharmacokinetics and the efficacy of DRM orally administered alone or in combination with CNM–PGF and LPM against resistant gastrointestinal nematodes in lambs. For the trial, 27 naturally infected Corriedale and Texel crossbreed lambs (average weight, 33 kg) were used. On day −1, all lambs were checked for EPG and tagged, and the individual body weights were recorded. As in the previous assay (Trial 2.1), the selection of the animals was based on EPG. […] Lambs were housed in a paddock with access to hay, commercial concentrates, and water ad libitum. Lambs were assigned into three experimental groups. Group A received DRM (0.2 mg/kg) as an oral emulsion (n = 7). Lambs in groups B and C received an emulsion containing DRM (a single dose of 0.2 mg/kg) and either LPM (n = 7) (three oral doses of 0.3 mg/kg, every 24 h) or CNM–PGF (n = 7) (three oral doses containing 72 and 64 mg/kg of CNM and PGF, respectively, every 24 h). Group D served as the untreated control (n = 6). As appropriate, the final concentrations of the active ingredients within the formulations were DRM 5%, CNM 18%, PGF 16%, LPM 30%. The compounds were diluted in Tween-80 11%, sesame oil 1–30%, and distilled water. The formulations were prepared using a similar method to that used in the previously described trial (Trial 2.1).
(§3) For the plasma disposition of DRM, jugular blood samples (2 mL) were collected into heparinized vacutainer tubes before treatment and at 3, 6, 9, 24, 30, 48, and 54 h and 3, 4, 7, 10, and 14 days post treatment. Blood samples were centrifuged at 2000× g for 15 min; the recovered plasma was kept in labeled vials and stored at −20 °C until the analysis of DRM by high performance liquid chromatography (HPLC). The effect of each treatment was indirectly estimated by collecting fecal samples on days −1 and 14 of administration to evaluate the FECR.
as §1
The statistical analysis was performed using Prism 8.0 (GraphPad Software, San Diego, CA, USA). ANOVA or Kruskal–Wallis tests were used for the statistical comparison. […]

[7] = test system: Haemonchus spp.; assay: Efficacy by nematode genus, trial 2; type: in vivo, Haemonchus contortus; settings: day 14, oral, lambs n = 7
From the text: (§4) Lambs were assigned into three experimental groups. […] Group D served as the untreated control (n = 6).

[8] = parameters: method as in PMID 11106995; settings: sheep; cited from earlier work
[9] = test system: P-glycoprotein
Protocol: as §6, §7, §8, §9, §10

[10] = test system: Haemonchus spp.; assay: Efficacy by nematode genus (coprocultures), trial 1; type: in vivo, Haemonchus contortus; settings: day 14, oral, lambs n = 9
Protocol: (§5) The coadministration of DRM and CNM–PGF, both by an oral emulsion, was evaluated in lambs. The trial involved 35 Corriedale and Texel crossbred lambs (mean body weight, 26 kg) naturally infected with resistant gastrointestinal nematodes and was conducted in a sheep experimental unit (Estación Experimental INTA, Balcarce, Argentina). There, a parasite control program based on the intensive use of antiparasitic drugs has been implemented for many years, leading to anthelmintic resistance to MLs and benzimidazoles. Animals were selected based on worm egg per gram counts (EPG), with an average EPG count of 2102 ± 1662. Animals were kept in a paddock and fed hay ad libitum, together with commercial concentrate feed. All animals had free access to water. Lambs were assigned to four experimental groups sorted by EPG count. Group A received an emulsion containing DRM (single dose of 0.2 mg/kg) (n = 9). Group B received CNM–PGF orally as an emulsion (two doses of 100 mg/kg every 24 h) (n = 9). Lambs of Group C were treated with an emulsion containing both DRM and CNM–PGF on the first day, and the second day, they received an emulsion of CNM–PGF only (n = 9). Group D included untreated lambs (n = 8). […] To evaluate the effect of the treatment, individual fecal samples from all the lambs were collected on days −1, 7, and 14 of treatment, and the fecal egg count reduction (FECR) was calculated. […]

[11] = test system: Teladorsagia spp.; assay: as above; type: in vivo; settings: day 14, oral, lambs n = 9
Protocol: as §5, with “8). The selected phytochemical dose was based on previous in vivo studies with other monoterpenes, such as thymol and carvone, which were administered to lambs at doses ranging from 100 to 150 mg/kg, without adverse effects. CNM–PGF was formulated as an emulsion composed of Tween-80/sesame oil (3:1) 20% at a final concentration of 15% CNM and 15% PGF. Briefly, the CNM–PGF emulsion was prepared using the high-energy ultrasonic method. CNM and PGF were mixed with sesame oil to form the oil phase. The oil phase was added dropwise to the aqueous phase containing Tween-80 and distillated water while stirring, and the emulsion formed was then subjected to ultrasonic emulsification for 15 min.” for “8).”

[12] = test system: Trichostrongylus spp.; assay: as above; type: in vivo; settings: day 14, oral, lambs n = 9
Protocol: as §5, with “8). The selected phytochemical dose was based on previous in vivo studies with other monoterpenes, such as thymol and carvone, which were administered to lambs at doses ranging from 100 to 150 mg/kg, without adverse effects. CNM–PGF was formulated as an emulsion composed of Tween-80/sesame oil (3:1) 20% at a final concentration of 15% CNM and 15% PGF. Briefly, the CNM–PGF emulsion was prepared using the high-energy ultrasonic method. CNM and PGF were mixed with sesame oil to form the oil phase. The oil phase was added dropwise to the aqueous phase containing Tween-80 and distillated water while stirring, and the emulsion formed was then subjected to ultrasonic emulsification for 15 min.” for “8).”

[13] = test system: Cooperia spp.; assay: as above; type: in vivo; settings: day 14, oral, lambs n = 9
Protocol: as §5, with “8). The selected phytochemical dose was based on previous in vivo studies with other monoterpenes, such as thymol and carvone, which were administered to lambs at doses ranging from 100 to 150 mg/kg, without adverse effects. CNM–PGF was formulated as an emulsion composed of Tween-80/sesame oil (3:1) 20% at a final concentration of 15% CNM and 15% PGF. Briefly, the CNM–PGF emulsion was prepared using the high-energy ultrasonic method. CNM and PGF were mixed with sesame oil to form the oil phase. The oil phase was added dropwise to the aqueous phase containing Tween-80 and distillated water while stirring, and the emulsion formed was then subjected to ultrasonic emulsification for 15 min.” for “8).”

[14] = Plasma pharmacokinetics of DRM after oral administration alone or with CNM–PGF or LPM; settings: DRM 0.2 mg/kg oral emulsion; sheep n = 7; mean ± SD
Protocol: as §2, §3, §1

[15] = test system: Teladorsagia spp.; assay: Efficacy by nematode genus, trial 2; type: in vivo; settings: day 14, oral, lambs n = 7
From the text: as §4

[16] = test system: Trichostrongylus spp.; assay: Efficacy by nematode genus, trial 2; type: in vivo; settings: day 14, oral, lambs n = 7
From the text: as §4

[17] = test system: gastrointestinal nematodes; settings: cited from earlier work; for Efficacy of single phytochemicals: sheep, low to moderate efficacy
[18] = test system: C. elegans; parameters: method as in doi:10.1155/2020/1740938; settings: in vitro exposure; cited from earlier work
[19] = test system: P-glycoprotein; assay: in vitro; settings: Corriedale and Texel crossbreed, sheep
Protocol: as §6, §7, §8, §9, §10

[20] = day 14, lower-upper confidence limit

O=C/C=C/c1ccccc1 [CNM, cinnamaldehyde]
In vivo anthelmintic effect [1]: failed to exert any in vivo anthelmintic effect | In vivo efficacy [2]: no in vivo efficacy was observed | Oral LD50 [3]: approximately 2220 mg/kg

CO[C@H]1C[C@H](O[C@H]2[C@H](C)O[C@@H](O[C@@H]3/C(C)=C/C[C@@H]4C[C@@H](C[C@]5(C=C[C@H](C)[C@@H](C6CCCCC6)O5)O4)OC(=O)[C@@H]4C=C(C)[C@@H](O)[C@H]5OC/C(=C\C=C\[C@@H]3C)[C@]54O)C[C@@H]2OC)O[C@@H](C)[C@@H]1O [DRM, doramectin]
Peff M–S of Rho123 in the presence of the modulator [4]: 3.83e-06 ± 1.87e-06 cm/s | Mean egg per gram (EPG) counts (±SD), Day 14 ([5]; 14 days after oral administration, DRM 0.2 mg/kg single dose, CNM–PGF two doses of 100 mg/kg every 24 h, lambs n = 9): 910 ± 2548 EPG and 910 ± 2548 ^abB EPG | Mean egg per gram (EPG) counts (±SD), Day 0 ([5]; baseline before treatment, lambs n = 9, mean ± SD): 2716 ± 2641 ^aA EPG | Prevalence of egg count negativization (percentage of animals with an egg count of zero) ([5]; day 14): 40% | FECR (LCL-UCL), 90% confidence interval [5, 20]: (0–98) % | FECR (%) ([5]; day 14, oral emulsion, lambs n = 9): 66% | Mean egg per gram (EPG) counts (±SD), Day 14 ([6]; 14 days after oral DRM 0.2 mg/kg, LPM three doses of 0.3 mg/kg, CNM–PGF three doses of 72 and 64 mg/kg, every 24 h, lambs n = 7): 694 ± 944 EPG and 694 ± 944 ^aB EPG | Mean egg per gram (EPG) counts (±SD), Day 0 ([6]; baseline before treatment, lambs n = 7, mean ± SD): 1586 ± 984 ^aA EPG | FECR (LCL-UCL), 90% confidence interval [6, 20]: (9–88) % | FECR (%) ([6]; day 14, oral emulsion, lambs n = 7): 56% | Efficacy (%) against Haemonchus spp. [7]: 0% | Absolute oral bioavailability [8]: 25% | Efflux ratio (ER) of Rho123 in the presence of the modulator [9]: 4.66 | Efficacy (%) against Haemonchus spp. [10]: 0% | Efficacy (%) against Teladorsagia spp. [11]: 100% | Efficacy (%) against Trichostrongylus spp. [12]: 100% | Efficacy (%) against Cooperia spp. [13]: 100% | AUC0–t of DRM in plasma [14]: 90.84 ± 33.61 ^a ng d/mL | Cmax of DRM in plasma [14]: 25.76 ± 10.01 ^a ng/mL | T max of DRM in plasma [14]: 0.93 ± 0.47 ^a days | T ½ el (elimination half-life) of DRM [14]: 2.19 ± 0.41 ^a days | Efficacy (%) against Teladorsagia spp. [15]: 82% | Efficacy (%) against Trichostrongylus spp. [16]: 100%

CN(C)C(=O)C(CCN1CCC(O)(c2ccc(Cl)cc2)CC1)(c1ccccc1)c1ccccc1 [LPM, loperamide]
Peff M–S of Rho123 in the presence of the modulator [4]: 3.84e-06 ± 1.02e-06 cm/s

C=C(C)[C@H]1CC=C(C)CC1 [Limonene, limonene]
FECR ([17]; long-term administration through feed, coadministered with a single dose of ivermectin, adult nematode number unaffected): 82% | Survival rate of C. elegans [18]: 30%

COC(=O)c1ccccc1-c1c2ccc(=N)cc-2oc2cc(N)ccc12 [Rho123, rhodamine 123]
Rho123 absorption, Peff M–S ([4]; 0.5 µM Rho123 alone (control)): 1.39e-06 ± 3.43e-07 cm/s | Rho123 secretion, Peff S–M ([4]; 0.5 µM Rho123 alone (control)): 1.11e-05 ± 3.64e-06 cm/s | efflux ratio at 4 h, 0.5 µM [19]: 10.3

C=C(C)C1CC=C(C)C(=O)C1 (stereo not shown) [carvone]
Efficacy of single phytochemicals [17]: 0–47%

Cc1ccc(C(C)C)c(O)c1 [thymol]
Efficacy of single phytochemicals [17]: 0–47%

— publication PMC12427341, “Phytochemical-Mediated Modulation of Doramectin Pharmacology in Sheep: Exploring the Cinnamaldehyde–Pink Grapefruit Combination” (Animals : an Open Access Journal from MDPI, 2025)
